Source: US20020184656A1, “In vivo assay system for screening and validation of drugs and other substances” (priority 2001, published 2002)

What was measured:
[1] = tested on: transgenic flies expressing human APC (hAPC/CBD) in developing eyes (using ey-GAL4); assay: Drug screening on human APC-induced eye phenotypes in transgenic flies (drug in fly food); format: in vivo, Drosophila; conditions: for Total number of flies with eye phenotypes (in parenthesis: total number of flies of right genotype) / Number of flies with eye phenotypic ranks 6-10 / Number of flies with eye phenotypic ranks 11-15 / Number of flies with eye phenotypic ranks 1-5 / Number of flies with eye phenotypic ranks 16-20: Ey-GAL4, hAPC/CBD
Protocol: Table 1 Distribution of eye phenotypes induced by hAPC/CBD in different genetic backgrounds and in the presence of various compounds and other anti-cancer drugs. Numbers are from a representative experiment. Number in parenthesis in the last column indicates total number of the flies of right genotype.
(§1) In yet another embodiment of the present invention, LD50 is determined for each of the chemicals tested. At concentrations LD50 and below, none of the drugs induce any morphological phenotypes in wildtype flies. Thereafter, the effect of these drugs on transgenic flies expressing human APC in developing eyes (using ey-GAL4) is examined.
Eye phenotypes induced by human APC are arranged in the order of severity from 1 to 20. Human APC in wildtype background induced phenotypes of ranks 1-9. […] WT—wild type eye.
(§2) For drug screening, drugs (at different concentrations) were added to fly food at <50° C. and left over-night for drying. Care was taken to ensure homogenous mixing of the drug in the fly food. Blind-tests were carried out, wherein the vials with or without drugs were coded (with the help of other members of the lab). The crosses were always set-up in triplicates. The method of administering drugs described above is only an example and should not be limited to it as there can be other ways of administering drugs.

Drosophila = assay: LD50 determination of the drugs in flies; format: in vivo; conditions: drug in fly food
Protocol: as §1, §2

[2] = 50 micrograms/ml fly food, 47 flies of right genotype
[3] = 200 microgram/ml fly food, 121 flies of right genotype
[4] = 500 micrograms/ml fly food, 59 flies of right genotype
[5] = 200 micrograms/ml fly food, 61 flies of right genotype

O=c1[nH]cc(F)c(=O)[nH]1 [5-fluorouracil]
Total number of flies with eye phenotypes (in parenthesis: total number of flies of right genotype) ([1]; 50 micrograms/ml fly food): 14(47)
Number of flies with eye phenotypic ranks 6-10 [1, 2]: 4
Number of flies with eye phenotypic ranks 11-15 [1, 2]: 1
Number of flies with eye phenotypic ranks 1-5 ([1]; 50 micrograms/ml fly food, 47 flies of right genotype, severity ranks 1 to 20): 9

COc1ccc2c(c1)c(CC(=O)O)c(C)n2C(=O)c1ccc(Cl)cc1 [Indomethacin]
Total number of flies with eye phenotypes (in parenthesis: total number of flies of right genotype) ([1]; 200 microgram/ml fly food): 47(121)
Number of flies with eye phenotypic ranks 1-5 [1, 3]: 12
Number of flies with eye phenotypic ranks 6-10 [1, 3]: 8
Number of flies with eye phenotypic ranks 11-15 [1, 3]: 16
Number of flies with eye phenotypic ranks 16-20 [1, 3]: 11
Effect on human APC-induced eye phenotypes ([1]; ey-GAL4, extent similar to the enhancement shown by Df(3R)by^62): enhances human APC-induced eye phenotypes
Concentration dependence of the effect on human APC-induced eye phenotypes ([1]; ey-GAL4, human APC): concentration dependent
Concentration of maximum effect on human APC-induced eye phenotypes ([1]; ey-GAL4, human APC): 200 μg/ml of fly food
Ranks of eye phenotypes observed (severity 1 to 20) ([1]; human APC in wildtype background without drug: ranks 1-9, often resulting eyeless flies): 1-20
LD50 (Drosophila): 250 μg/ml of fly food

CN1C(C(=O)Nc2ccccn2)=C(O)c2ccccc2S1(=O)=O [Pyroxicam]
Total number of flies with eye phenotypes (in parenthesis: total number of flies of right genotype) ([1]; 500 micrograms/ml fly food): 21(59)
Number of flies with eye phenotypic ranks 1-5 [1, 4]: 11
Number of flies with eye phenotypic ranks 6-10 [1, 4]: 7
Number of flies with eye phenotypic ranks 11-15 [1, 4]: 1
Number of flies with eye phenotypic ranks 16-20 [1, 4]: 2

CC(=O)Oc1ccccc1C(=O)O [aspirin]
Total number of flies with eye phenotypes (in parenthesis: total number of flies of right genotype) ([1]; 200 micrograms/ml fly food): 19(61)
Number of flies with eye phenotypic ranks 1-5 [1, 5]: 13
Number of flies with eye phenotypic ranks 6-10 [1, 5]: 4
Number of flies with eye phenotypic ranks 11-15 [1, 5]: 2
